Patent US20230023092A1, “TREATMENT OF DEPRESSION AND OTHER VARIOUS DISORDERS WITH PSILOCYBIN” (COMPASS […], priority 2019, published 2023)
Values after ≈ are worked out from the molar mass of the structure shown.

Columns and labels:
[1] = tested on: healthy subjects; experiment: Symptom Checklist-90 Item (SCL-90); format: in vivo, human
Text: In some embodiments, the Symptom Checklist-90 item (SCL-90) questionnaire is used to evaluate the safety and/or efficacy of psilocybin. The SCL-90 is a relatively brief self-report psychometric instrument designed to evaluate a broad range of psychological problems and symptoms of psychopathology. In some embodiments, the SCL-90 is used to assess somatization, obsessive-compulsive behaviors, interpersonal sensitivity, depression, anxiety, hostility, phobic anxiety, paranoid ideation, and psychoticism of a subject treated according to the methods of the disclosure. The 90 items in the questionnaire are scored on a 5-point Likert scale, indicating the rate of occurrence of the symptom during the time reference. In some embodiments, after treating according to the methods of the disclosure, a subject's SCL-90 score decreases by about 5% to about 100%, for example, by about 5%, about 10%, about 15%, about 20%, about 25%, about 30%, about 35%, about 40%, about 45%, about 50%, about 55%, about 60%, about 65%, about 70%, about 75%, about 80%, about 85%, about 90%, about 95%, or about 100%.
The Neuroticism Extraversion Openness-Five Factor Inventory (NEO-FFI) and Symptom Checklist-90 Item (SCL-90) were administered. Details of the MMRM applied to the change from baseline scores for the NEO-FFI and SCL-90 are provided below in Table 2Q.

[2] = Solubility and hygroscopicity of psilocybin (Polymorph A or A′); format: physicochemical; conditions: in Water; form Polymorph A or A′
Text: In some embodiments, the psilocybin of the disclosure in the form Polymorph A or A′ has the general properties illustrated in Table D.

[3] = Day 7, psilocybin 25 mg - 10 mg
[4] = Day 7, psilocybin 25 mg - placebo
[5] = Day 84, psilocybin 10 mg - placebo
[6] = Day 84, psilocybin 25 mg - 10 mg
[7] = Day 84, psilocybin 25 mg - placebo

## CN(C)CCc1c[nH]c2cccc(OP(=O)(O)O)c12 [Psilocybin, psilocybin]
[1]; [3]
  SCL-90 depression change from baseline, LS mean difference: −0.0
  SCL-90 interpersonal sensitivity change from baseline, LS mean difference: 0.1
  SCL-90 obsessive compulsive change from baseline, LS mean difference: −0.0
  SCL-90 paranoid ideation change from baseline, LS mean difference: 0.1
  SCL-90 phobic anxiety change from baseline, LS mean difference: 0.0
  SCL-90 psychoticism change from baseline, LS mean difference: 0.0
[1]; [4]
  SCL-90-somatisation change from baseline, LS mean difference: 0.1
  SCL-90 anger hostility change from baseline, LS mean difference: −0.0
  SCL-90 anxiety change from baseline, LS mean difference: 0.0
  SCL-90 depression change from baseline, LS mean difference: 0.0
  SCL-90 interpersonal sensitivity change from baseline, LS mean difference: 0.0
  SCL-90 obsessive compulsive change from baseline, LS mean difference: 0.1
  SCL-90 paranoid ideation change from baseline, LS mean difference: 0.1
  SCL-90 phobic anxiety change from baseline, LS mean difference: 0.0
  SCL-90 psychoticism change from baseline, LS mean difference: 0.0
[1]; Day 84, psilocybin 10 mg
  SCL-90-somatisation change from baseline, LS mean: 0.0
  SCL-90 anger hostility change from baseline, LS mean: 0.0
  SCL-90 anxiety change from baseline, LS mean: −0.0
  SCL-90 depression change from baseline, LS mean: 0.1
  SCL-90 interpersonal sensitivity change from baseline, LS mean: 0.0
  SCL-90 obsessive compulsive change from baseline, LS mean: −0.0
  SCL-90 paranoid ideation change from baseline, LS mean: 0.1
  SCL-90 phobic anxiety change from baseline, LS mean: 0.0
  SCL-90 psychoticism change from baseline, LS mean: −0.0
[1]; [5]
  SCL-90-somatisation change from baseline, LS mean difference: 0.0
  SCL-90 anger hostility change from baseline, LS mean difference: −0.0
  SCL-90 anxiety change from baseline, LS mean difference: −0.1
  SCL-90 depression change from baseline, LS mean difference: 0.0
  SCL-90 interpersonal sensitivity change from baseline, LS mean difference: −0.1
  SCL-90 obsessive compulsive change from baseline, LS mean difference: 0.1
  SCL-90 paranoid ideation change from baseline, LS mean difference: 0.1
  SCL-90 phobic anxiety change from baseline, LS mean difference: −0.0
  SCL-90 psychoticism change from baseline, LS mean difference: −0.0
[1]; Day 84, psilocybin 25 mg
  SCL-90-somatisation change from baseline, LS mean: 0.0
  SCL-90 anger hostility change from baseline, LS mean: 0.0
  SCL-90 anxiety change from baseline, LS mean: −0.0
  SCL-90 depression change from baseline, LS mean: 0.1
  SCL-90 interpersonal sensitivity change from baseline, LS mean: 0.0
  SCL-90 obsessive compulsive change from baseline, LS mean: −0.1
  SCL-90 paranoid ideation change from baseline, LS mean: 0.1
  SCL-90 phobic anxiety change from baseline, LS mean: 0.0
  SCL-90 psychoticism change from baseline, LS mean: 0.0
[1]; [6]
  SCL-90-somatisation change from baseline, LS mean difference: 0.0
  SCL-90 anger hostility change from baseline, LS mean difference: −0.0
  SCL-90 anxiety change from baseline, LS mean difference: 0.0
  SCL-90 depression change from baseline, LS mean difference: 0.0
  SCL-90 interpersonal sensitivity change from baseline, LS mean difference: 0.0
  SCL-90 obsessive compulsive change from baseline, LS mean difference: −0.1
  SCL-90 paranoid ideation change from baseline, LS mean difference: 0.0
  SCL-90 phobic anxiety change from baseline, LS mean difference: 0.0
  SCL-90 psychoticism change from baseline, LS mean difference: 0.0
[1]; [7]
  SCL-90-somatisation change from baseline, LS mean difference: 0.0
  SCL-90 anger hostility change from baseline, LS mean difference: −0.0
  SCL-90 anxiety change from baseline, LS mean difference: −0.0
  SCL-90 depression change from baseline, LS mean difference: 0.0
  SCL-90 interpersonal sensitivity change from baseline, LS mean difference: −0.0
  SCL-90 obsessive compulsive change from baseline, LS mean difference: 0.0
  SCL-90 paranoid ideation change from baseline, LS mean difference: 0.1
  SCL-90 phobic anxiety change from baseline, LS mean difference: 0.0
  SCL-90 psychoticism change from baseline, LS mean difference: −0.0
[2]
  solubility: ~15 mg/mL (≈ 52.8 mM)
